Laboratory results taken from patent US20010049373A1, “Materials and methods for killing nematodes and nematode eggs” (priority 2000, published 2001).
Several values for one entry are separate records, joined by “and”; a condition that tells them apart may be missing. Equal values may be shown once.

Experiments:
[1] = tested on: gastrointestinal nematodes; assay: Sheep Test I: nematode recovery at necropsy, controlled anthelmintic test efficacy; type: in vivo; conditions: for Mean Ct, Abomasum Haemonchus / Mean Ct, Abomasum ostertagia / Mean Ct, Small Intest. Nematodirus / Mean Ct, Small Intestine Trichostrongylus: group mean; for Mean Ct, Abomasum Haemonchus / Mean Ct, Abomasum ostertagia / Mean Ct, Small Intest. Nematodirus / Mean Ct, Small Intestine Trichostrongylus / Worm Counts, Abomasum Haemonchus / Worm Counts, Abomasum ostertagia / Worm Counts, Small Intest. Nematodirus / Worm Counts, Small Intestine Trichostrongylus: necropsy seven days following treatment; for Worm Counts, Abomasum Haemonchus / Worm Counts, Abomasum ostertagia / Worm Counts, Small Intest. Nematodirus / Worm Counts, Small Intestine Trichostrongylus: individual sheep
Experimental: Sheep naturally infected with a variety of gastrointestinal nematodes are purchased from local sources and are transported to the test site. The animals are housed in a manner to preclude further infection by nematode larvae. The animals are evaluated for the presence of adequate nematode burdens by performing a standard fecal egg per gram (EPG) count. Eggs are differentiated into the following groups: trichostrongyle (strongyle), Strongyloides, Trichuris, or Nematodinis. Only sheep judged by the study parasitologist to have adequate nematode infections are retained as test subjects. The sheep are fed good quality hay (no concentrated rations) and water ad libitum. Following a five-day acclimation period, the sheep are randomly assigned by EPG count into treatment groups which include non-treated Negative control (placebo); […] The first replicate of 10 animals is randomly assigned to groups 1-10; the second replicate of 10 animals is randomly assigned to groups 1-10; and the third replicate of 10 animals is randomly assigned to groups 1-10. Thus 10 groups of 3 animals each is created. The placebo (DMSO), the commercially available drug, and the test anthelmintic compounds are administered in a 3 ml volume by subcutaneous injection using a sterile syringe fitted with a proper needle. The animal is adequately immobilized for injection of the placebo, commercially available drug, or test anthelmintic compound. Seven days following treatment the sheep are humanely slaughtered in accordance with the Guide for the Care and Use of Laboratory Animals (DHEW Publication No. 86-23). Necropsy procedures are according to Zimmerman Research SOP # […].99.01, Necropsy for Helminth Recovery, specifically for gastrointestinal nematodes. Fecal samples are taken for EPG counts during the sample collection process on this day. All animals are necropsied, but only the animals from the experimental treatment groups that have a significant egg count reduction on day 5 or day 7 will have intestinal material collected for nematode recovery and identification. Nematodes are recovered, identified, and enumerated according to Zimmerman Research SOP # […].99.01. All individuals performing nematode recoveries are blinded to treatment versus control animals. Preliminary estimates of total nematodes recovered from each gut sample are provided prior to identification and enumerations by the study parasitologist. At the discretion of the study parasitologist, seven days after the drug administration fecal egg counts are performed and all animals showing 90% or better trichostrongylid egg reduction will be slaughtered using humane methods recommended by the AVMA. The neck blood vessels are severed and after the animal is completely exsanguinated, the abdomen are opened. The abomasum, the small and large intestines are tied at the omasal and pyloric openings, the duodenum, the end of the small intestine and at the end of the large intestine. Each section is transferred in a separate bucket containing warm water and is slit open and thoroughly washed. The epithelium is inspected before it is removed. The thus prepared washings are saved in gallon jars. An appropriate preservative is added. If preservative is not available, all the intestinal washing should kept in a refrigerator. These washings are passed through a 100-mesh sieve (pore size […]), and the residue is examined for the presence of worms under a dissecting microscope, Lugol's solution may be used to stain the worms. All worms are picked up counted and identified as to the species. An effort should be made to recover any immature forms present.

[2] = tested on: gastrointestinal nematodes (trichostrongyle, Strongyloides, Trichuris, Nematodirus eggs); assay: Sheep Test I: fecal egg per gram (EPG) counts; type: in vivo; conditions: for % Change, Strongyles EPG-5 day vs EPG-pre, Total/Mean / Strongyles EPG-5 day (22-Jan), Total/Mean / % Change, Strongyles EPG-7 day vs EPG-pre, Total/Mean / Strongyles EPG-7 day (24-Jan), Total/Mean: group mean; for % Change, Strongyles EPG-5 day vs EPG-pre, Total/Mean / Strongyles EPG-5 day (22-Jan), Total/Mean / Strongyles EPG-5 day (22-Jan): 5 days after treatment; for % Change, Strongyles EPG-7 day vs EPG-pre, Total/Mean / Strongyles EPG-7 day (24-Jan), Total/Mean / % Change, Strongyles EPG-7 day vs EPG-pre / Strongyles EPG-7 day (24-Jan): 7 days after treatment; for Strongyles EPG-5 day (22-Jan) / % Change, Strongyles EPG-7 day vs EPG-pre / Strongyles EPG-7 day (24-Jan): individual sheep
Experimental: Sheep naturally infected with a variety of gastrointestinal nematodes are purchased from local sources and are transported to the test site. The animals are housed in a manner to preclude further infection by nematode larvae. The animals are evaluated for the presence of adequate nematode burdens by performing a standard fecal egg per gram (EPG) count. Eggs are differentiated into the following groups: trichostrongyle (strongyle), Strongyloides, Trichuris, or Nematodinis. Only sheep judged by the study parasitologist to have adequate nematode infections are retained as test subjects.
The sheep are fed good quality hay (no concentrated rations) and water ad libitum. Following a five-day acclimation period, the sheep are randomly assigned by EPG count into treatment groups which include non-treated Negative control (placebo); Positive Control (commercially available ivermectin for sheep): and various anthelmintic compounds of the present invention (test compound) dissolved in DMSO. The first replicate of 10 animals is randomly assigned to groups 1-10; the second replicate of 10 animals is randomly assigned to groups 1-10; and the third replicate of 10 animals is randomly assigned to groups 1-10. Thus 10 groups of 3 animals each is created.
The randomization is performed on fecal samples collected 24-48 hours prior to scheduled treatment. The EPG counts are performed according to Zimmerman Research SOP # NMEPG.99.01
On treatment day, the animals are weighed and divided into groups with three animals per group as follows:
The placebo (DMSO), the commercially available drug, and the test anthelmintic compounds are administered in a 3 ml volume by subcutaneous injection using a sterile syringe fitted with a proper needle. The animal is adequately immobilized for injection of the placebo, commercially available drug, or test anthelmintic compound.
Following treatment, the animals are observed at hourly intervals for the first 8 hours, then daily until necropsy. They will continue to be housed in a manner to prevent further nematode infections. Fecal samples are taken for EPG counts on the 5th day and 7th day after treatment.
Seven days following treatment the sheep are humanely slaughtered in accordance with the Guide for the Care and Use of Laboratory Animals (DHEW Publication No. 86-23). Necropsy procedures are according to Zimmerman Research SOP # NCRGIH.99.01, Necropsy for Helminth Recovery, specifically for gastrointestinal nematodes. Fecal samples are taken for EPG counts during the sample collection process on this day. All animals are necropsied, but only the animals from the experimental treatment groups that have a significant egg count reduction on day 5 or day 7 will have intestinal material collected for nematode recovery and identification.

[3] = Ivermectin 200 mcg/kg, vs negative control mean count
[4] = AKC 109 1.4 mg/kg, vs negative control mean count

**Q.** Which “% Efficacy, Abomasum Haemonchus” value [1, 3] does the source give for 22,23-dihydroavermectin B1 [ivermectin] here?
**A.** 100%

**Q.** And the “% Efficacy, Abomasum ostertagia” value [1, 3]?
**A.** 100%

**Q.** And the “% Efficacy, Small Intest. Nematodirus” value [1, 3]?
**A.** 100%

**Q.** What about the “% Efficacy, Small Intestine Trichostrongylus” value [1, 3] of the same molecule?
**A.** 100%

**Q.** And the “Mean Ct, Abomasum Haemonchus” value ([1]; Ivermectin 200 mcg/kg)?
**A.** 0

**Q.** What about the “Mean Ct, Abomasum ostertagia” value ([1]; Ivermectin 200 mcg/kg) of the same molecule?
**A.** 0

**Q.** And the “Mean Ct, Small Intest. Nematodirus” value ([1]; Ivermectin 200 mcg/kg)?
**A.** 0

**Q.** And the “Mean Ct, Small Intestine Trichostrongylus” value ([1]; Ivermectin 200 mcg/kg)?
**A.** 0

**Q.** And the “Worm Counts, Abomasum Haemonchus” value ([1]; Ivermectin 200 mcg/kg)?
**A.** 0

**Q.** And the “Worm Counts, Abomasum ostertagia” value ([1]; Ivermectin 200 mcg/kg)?
**A.** 0

**Q.** What about the “Worm Counts, Small Intest. Nematodirus” value ([1]; Ivermectin 200 mcg/kg) of the same molecule?
**A.** 0

**Q.** And the “Worm Counts, Small Intestine Trichostrongylus” value ([1]; Ivermectin 200 mcg/kg)?
**A.** 0

**Q.** What about the “% Change, Strongyles EPG-5 day vs EPG-pre, Total/Mean” value ([2]; Ivermectin .2 mg/kg) of the same molecule?
**A.** 99.62%

**Q.** What about the “Strongyles EPG-5 day (22-Jan), Total/Mean” value ([2]; Ivermectin .2 mg/kg) of the same molecule?
**A.** 3.33 EPG

**Q.** What about the “% Change, Strongyles EPG-7 day vs EPG-pre, Total/Mean” value ([2]; Ivermectin .2 mg/kg) of the same molecule?
**A.** 100.00%

**Q.** What about the “Strongyles EPG-7 day (24-Jan), Total/Mean” value ([2]; Ivermectin .2 mg/kg) of the same molecule?
**A.** 0.00 EPG

**Q.** What about the “Strongyles EPG-5 day (22-Jan)” value ([2]; Ivermectin .2 mg/kg) of the same molecule?
**A.** 10 EPG and 0 EPG (2×)

**Q.** And the “% Change, Strongyles EPG-7 day vs EPG-pre” value ([2]; Ivermectin .2 mg/kg)?
**A.** 100.00%

**Q.** And the “Strongyles EPG-7 day (24-Jan)” value ([2]; Ivermectin .2 mg/kg)?
**A.** 0 EPG

**Q.** For `CCC1CCCCN1c1cc(Oc2ccc3oc4ccccc4c3c2)ncn1` (stereo not drawn) [AKC 109], which “% Efficacy, Abomasum ostertagia” value [1, 4] is on record?
**A.** 98%

**Q.** What about the “% Efficacy, Small Intest. Nematodirus” value [1, 4] of the same molecule?
**A.** 57%

**Q.** What about the “Mean Ct, Abomasum Haemonchus” value ([1]; AKC 109 1.4 mg/kg) of the same molecule?
**A.** 507

**Q.** What about the “Mean Ct, Abomasum ostertagia” value ([1]; AKC 109 1.4 mg/kg) of the same molecule?
**A.** 7

**Q.** What about the “Mean Ct, Small Intest. Nematodirus” value ([1]; AKC 109 1.4 mg/kg) of the same molecule?
**A.** 353

**Q.** And the “Mean Ct, Small Intestine Trichostrongylus” value ([1]; AKC 109 1.4 mg/kg)?
**A.** 233

**Q.** And the “Worm Counts, Abomasum Haemonchus” value ([1]; AKC 109 1.4 mg/kg, 1.4 mg/kg)?
**A.** 20 and 1500 and 0

**Q.** What about the “Worm Counts, Abomasum ostertagia” value ([1]; AKC 109 1.4 mg/kg, 1.4 mg/kg) of the same molecule?
**A.** 20 and 0 (2×)

**Q.** What about the “Worm Counts, Small Intest. Nematodirus” value ([1]; AKC 109 1.4 mg/kg, 1.4 mg/kg) of the same molecule?
**A.** 100 and 500 and 460

**Q.** What about the “Worm Counts, Small Intestine Trichostrongylus” value ([1]; AKC 109 1.4 mg/kg, 1.4 mg/kg) of the same molecule?
**A.** 540 and 160 and 0

**Q.** What about the “% Change, Strongyles EPG-5 day vs EPG-pre, Total/Mean” value ([2]; AKC 109 1.4 mg/kg) of the same molecule?
**A.** 76.43%

**Q.** And the “Strongyles EPG-5 day (22-Jan), Total/Mean” value ([2]; AKC 109 1.4 mg/kg)?
**A.** 206.67 EPG

**Q.** What about the “% Change, Strongyles EPG-7 day vs EPG-pre, Total/Mean” value ([2]; AKC 109 1.4 mg/kg) of the same molecule?
**A.** 85.55%

**Q.** And the “Strongyles EPG-7 day (24-Jan), Total/Mean” value ([2]; AKC 109 1.4 mg/kg)?
**A.** 126.67 EPG

**Q.** And the “Strongyles EPG-5 day (22-Jan)” value ([2]; AKC 109 1.4 mg/kg, 1.4 mg/kg)?
**A.** 30 EPG and 590 EPG and 0 EPG

**Q.** What about the “% Change, Strongyles EPG-7 day vs EPG-pre” value ([2]; AKC 109 1.4 mg/kg, 1.4 mg/kg) of the same molecule?
**A.** 84.30% and −195.00% and 100.00%

**Q.** And the “Strongyles EPG-7 day (24-Jan)” value ([2]; AKC 109 1.4 mg/kg, 1.4 mg/kg)?
**A.** 380 EPG and 0 EPG
